Experimental data reported in patent publication US11339171B2, “MDM2 inhibitors” (Gan & Lee Pharmaceuticals, priority 2017, dated 2022).
Values joined by “and” are separate entries in the source; they are usually repeats but may differ in a detail not shown here. Identical values can stand only once. Like-named read-outs stand apart in the source and are kept apart here.

Columns and labels:
[1] = molecular target: T1, MDM2 (Homo sapiens, UniProt Q00987); experiment: Inhibition test of MDM2-P53 (GST-MDM2, Biotin-P53, Anti-GST-Tb, SA-XL665); format: binding
T1 construct: made in house
T1 sequence (Q00987 whole entry): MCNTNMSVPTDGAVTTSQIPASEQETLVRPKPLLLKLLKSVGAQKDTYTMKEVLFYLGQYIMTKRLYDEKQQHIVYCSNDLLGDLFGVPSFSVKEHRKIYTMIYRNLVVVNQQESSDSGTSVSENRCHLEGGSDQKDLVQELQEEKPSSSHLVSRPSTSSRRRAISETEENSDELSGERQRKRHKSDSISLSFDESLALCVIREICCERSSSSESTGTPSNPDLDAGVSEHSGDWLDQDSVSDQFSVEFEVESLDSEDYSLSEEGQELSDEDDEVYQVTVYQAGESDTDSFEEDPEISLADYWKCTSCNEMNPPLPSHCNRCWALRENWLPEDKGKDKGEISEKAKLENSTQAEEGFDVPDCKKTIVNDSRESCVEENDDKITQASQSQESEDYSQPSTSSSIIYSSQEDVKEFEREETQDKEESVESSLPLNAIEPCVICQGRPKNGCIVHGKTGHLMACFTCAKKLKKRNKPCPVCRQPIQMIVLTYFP
Method in brief: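 Compounds, serially diluted 5-fold (twelve concentrations), were shaken for 90 min at 25° C with a mix of GST-MDM2 (4 nM final), Biotin-P53, anti-GST-Tb and SA-XL665. Buffer: 1×PBS, 0.1% BSA, 5 mM DTT, 1 mM AEBSF; signal read on a microplate reader.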

[2] = Pharmacokinetics in ICR mice after intravenous and intragastric administration; format: in vivo; conditions: for MRT last: read-out: MRT(0-t); for MRT inf: read-out: MRT(0-∞); for Vd: read-out: Vz; for bioavailability: PO 5 mg/kg vs IV 2 mg/kg, from mean values, read-out: F* (bioavailability)
Method in brief: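 Single-dose mouse PK study: i.v. 2 mg/kg and intragastric 5 mg/kg to fasted male ICR mice, three animals per arm. Exposure and disposition parameters (Cmax, Tmax, AUC, t1/2, F, CL, Vz) came from LC-MS/MS plasma levels.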

[3] = system: human osteosarcoma cell line SJSA-1; experiment: Inhibition of proliferation of human osteosarcoma cell line SJSA-1 (DAPI staining, In Cell Analyzer); conditions: Homo sapiens, SJSA-1, 72 h, read-out: IC50 (nM), inhibitory activity on proliferation of human osteosarcoma cell line SJSA-1, SJSA-1, incubated 72 h
[4] = ICR mice, IV 2 mg/kg, individual animal, 2 mg/kg
[5] = ICR mice, PO 5 mg/kg, individual animal, 5 mg/kg
[6] = male, ICR, mouse, plasma, iv, 2 mg/kg, ICR mice, IV 2 mg/kg, individual animal
[7] = male, ICR, mouse, plasma, iv, 2 mg/kg, ICR mice, IV 2 mg/kg, individual animal, read-out: AUC(0-t)
[8] = male, ICR, mouse, plasma, iv, 2 mg/kg, ICR mice, IV 2 mg/kg, individual animal, read-out: Cmax
[9] = male, ICR, mouse, plasma, iv, 2 mg/kg, ICR mice, IV 2 mg/kg, individual animal, read-out: Tmax
[10] = male, ICR, mouse, plasma, iv, 2 mg/kg, ICR mice, IV 2 mg/kg, individual animal, read-out: t1/2 (converted)
[11] = male, ICR, mouse, plasma, iv, 2 mg/kg, ICR mice, IV 2 mg/kg, mean of 3 animals
[12] = male, ICR, mouse, plasma, iv, 2 mg/kg, ICR mice, IV 2 mg/kg, mean of 3 animals, read-out: AUC(0-t)
[13] = male, ICR, mouse, plasma, iv, 2 mg/kg, ICR mice, IV 2 mg/kg, mean of 3 animals, read-out: Cmax
[14] = male, ICR, mouse, plasma, iv, 2 mg/kg, ICR mice, IV 2 mg/kg, mean of 3 animals, read-out: Tmax
[15] = male, ICR, mouse, plasma, iv, 2 mg/kg, ICR mice, IV 2 mg/kg, mean of 3 animals, read-out: t1/2 (converted)
[16] = male, ICR, mouse, plasma, po, 5 mg/kg, ICR mice, PO 5 mg/kg, individual animal
[17] = male, ICR, mouse, plasma, po, 5 mg/kg, ICR mice, PO 5 mg/kg, individual animal, read-out: AUC(0-t)
[18] = male, ICR, mouse, plasma, po, 5 mg/kg, ICR mice, PO 5 mg/kg, individual animal, read-out: Cmax
[19] = male, ICR, mouse, plasma, po, 5 mg/kg, ICR mice, PO 5 mg/kg, individual animal, read-out: Tmax
[20] = male, ICR, mouse, plasma, po, 5 mg/kg, ICR mice, PO 5 mg/kg, individual animal, read-out: t1/2 (converted)
[21] = male, ICR, mouse, plasma, po, 5 mg/kg, ICR mice, PO 5 mg/kg, mean of 3 animals
[22] = male, ICR, mouse, plasma, po, 5 mg/kg, ICR mice, PO 5 mg/kg, mean of 3 animals, read-out: AUC(0-t)
[23] = male, ICR, mouse, plasma, po, 5 mg/kg, ICR mice, PO 5 mg/kg, mean of 3 animals, read-out: Cmax
[24] = male, ICR, mouse, plasma, po, 5 mg/kg, ICR mice, PO 5 mg/kg, mean of 3 animals, read-out: Tmax
[25] = male, ICR, mouse, plasma, po, 5 mg/kg, ICR mice, PO 5 mg/kg, mean of 3 animals, read-out: t1/2 (converted)
[26] = male, ICR, mouse, plasma, po, 5 mg/kg, oral intragastric administration 5 mg/kg, read-out: AUC0-t
[27] = male, ICR, mouse, plasma, po, 5 mg/kg, oral intragastric administration 5 mg/kg, read-out: half-life (converted)

COc1nc(C2CC2)ncc1-c1nc2c(n1C(C)C)[C@@]1(C(=O)Nc3cc(Cl)ccc31)N(c1cc(Cl)ccc1C)C2=O [Example S-121, (S)-6-chloro-5′-(5-chloro-2-methylphenyl)-2′-(2-cyclopropyl-4-methoxypyrimidin-5-yl)-3′-isopropyl-3′H-spiro[dihydroindole-3,4′-pyrrolo[3,4-d]imidazole]-2,6′(5′H)-dione]
IC50 [1]: 3.35 nM
AUC(0-t) [2, 4]: 26953.62 ng·h/mL and 24572.30 ng·h/mL
AUC(0-∞) [2, 4]: 27749.72 ng·h/mL and 25488.79 ng·h/mL
CL [2, 4]: 1.20 mL/min/kg and 1.31 mL/min/kg
Cmax [2, 4]: 3576.94 ng/mL and 3887.60 ng/mL
MRT(0-t) [2, 4]: 5.04 h and 5.26 h
MRT(0-∞) [2, 4]: 5.79 h and 6.22 h
Vz [2, 4]: 0.53 L/kg and 0.62 L/kg
t1/2 [2, 4]: 5.09 h and 5.50 h
AUC(0-t) [2, 5]: 43063.09 ng·h/mL and 40782.54 ng·h/mL
AUC(0-∞) [2, 5]: 43407.01 ng·h/mL and 41032.91 ng·h/mL
Cmax [2, 5]: 4835.52 ng/mL and 4714.57 ng/mL
MRT(0-t) [2, 5]: 5.27 h and 5.40 h
MRT(0-∞) [2, 5]: 5.45 h and 5.54 h
Tmax [2, 5]: 4.00 h
t1/2 [2, 5]: 3.34 h and 3.14 h
AUC(0-inf) [2, 6]: 29400 ng·h/mL
clearance [2, 6]: 1.14 mL/min/kg
AUC(0-t) [2, 7]: 28400 ng·h/mL
Cmax [2, 8]: 3350 ng/mL
MRT last [2, 6]: 5.15 h
MRT inf [2, 6]: 6.03 h
Tmax [2, 9]: 0.08 h
Vd [2, 6]: 0.52 L/kg
half-life [2, 10]: 5.25 h
AUC(0-inf) [2, 11]: 27500 ng·h/mL
clearance [2, 11]: 1.21 mL/min/kg
AUC(0-t) [2, 12]: 26600 ng·h/mL
Cmax [2, 13]: 3600 ng/mL
MRT last [2, 11]: 5.15 h
MRT inf [2, 11]: 6.01 h
Tmax [2, 14]: 0.083 h
Vd [2, 11]: 0.56 L/kg
half-life [2, 15]: 5.28 h
AUC(0-inf) [2, 16]: 40300 ng·h/mL
AUC(0-t) [2, 17]: 40100 ng·h/mL
Cmax [2, 18]: 4920 ng/mL
MRT last [2, 16]: 4.96 h
MRT inf [2, 16]: 5.08 h
Tmax [2, 19]: 2 h
half-life [2, 20]: 3.09 h
AUC(0-inf) [2, 21]: 41600 ng·h/mL
AUC(0-t) [2, 22]: 41300 ng·h/mL
Cmax [2, 23]: 4820 ng/mL
MRT last [2, 21]: 5.21 h
MRT inf [2, 21]: 5.36 h
Tmax [2, 24]: 3.33 h
half-life [2, 25]: 3.19 h
AUC(0-t) [2, 26]: 41300 ng·h/mL
half-life [2, 27]: 3.19 h
bioavailability ([2]; male, mouse, plasma, ICR mice): 62%
IC50 [3]: 67 nM

COc1cc(OC)c(-c2nc3c(n2C(C)C)[C@@]2(C(=O)Nc4cc(Cl)ccc42)N(c2cc(Cl)cnc2C)C3=O)cn1 [Example S-131, (S)-6-chloro-5′-(5-chloro-2-methylpyridin-3-yl)-2′-(4,6-dimethoxypyridin-3-yl)-3′-isopropyl-3′H-spiro[dihydroindole-3,4′-pyrrolo[3,4-d]imidazole]-2,6′(5′H)-dione]
IC50 [1]: 1.17 nM
AUC(0-t) [2, 4]: 1579.23 ng·h/mL and 1776.79 ng·h/mL
AUC(0-∞) [2, 4]: 1594.10 ng·h/mL and 1788.59 ng·h/mL
CL [2, 4]: 20.91 mL/min/kg and 18.64 mL/min/kg
Cmax [2, 4]: 2021.33 ng/mL and 1997.01 ng/mL
MRT(0-t) [2, 4]: 0.90 h and 0.94 h
MRT(0-∞) [2, 4]: 0.96 h and 0.98 h
Vz [2, 4]: 1.78 L/kg and 1.45 L/kg
t1/2 [2, 4]: 0.98 h and 0.90 h
AUC(0-t) [2, 5]: 5902.77 ng·h/mL and 6839.45 ng·h/mL
AUC(0-∞) [2, 5]: 6003.28 ng·h/mL and 7052.50 ng·h/mL
Cmax [2, 5]: 1853.01 ng/mL and 1794.96 ng/mL
MRT(0-t) [2, 5]: 2.27 h and 2.45 h
MRT(0-∞) [2, 5]: 2.40 h and 2.68 h
t1/2 [2, 5]: 1.28 h and 1.47 h
AUC(0-inf) [2, 6]: 1260 ng·h/mL
clearance [2, 6]: 26.4 mL/min/kg
AUC(0-t) [2, 7]: 1260 ng·h/mL
Cmax [2, 8]: 1780 ng/mL
MRT last [2, 6]: 0.71 h
MRT inf [2, 6]: 0.73 h
Tmax [2, 9]: 0.08 h
Vd [2, 6]: 1.73 L/kg
half-life [2, 10]: 0.76 h
AUC(0-inf) [2, 11]: 1550 ng·h/mL
clearance [2, 11]: 22 mL/min/kg
AUC(0-t) [2, 12]: 1540 ng·h/mL
Cmax [2, 13]: 1930 ng/mL
MRT last [2, 11]: 0.85 h
MRT inf [2, 11]: 0.89 h
Tmax [2, 14]: 0.083 h
Vd [2, 11]: 1.65 L/kg
half-life [2, 15]: 0.88 h
AUC(0-inf) [2, 16]: 3770 ng·h/mL
AUC(0-t) [2, 17]: 3740 ng·h/mL
Cmax [2, 18]: 1440 ng/mL
MRT last [2, 16]: 1.9 h
MRT inf [2, 16]: 1.95 h
Tmax [2, 19]: 1 h
half-life [2, 20]: 1.03 h
AUC(0-inf) [2, 21]: 5610 ng·h/mL
AUC(0-t) [2, 22]: 5500 ng·h/mL
Cmax [2, 23]: 1700 ng/mL
MRT last [2, 21]: 2.21 h
MRT inf [2, 21]: 2.34 h
Tmax [2, 24]: 1 h
half-life [2, 25]: 1.26 h
AUC(0-t) [2, 26]: 5500 ng·h/mL
half-life [2, 27]: 1.26 h
bioavailability ([2]; male, mouse, plasma, ICR mice): 143%
IC50 [3]: 46.3 nM
